In article PMC6057649, “Development of NanoLuc-PEST expressing Leishmania mexicana as a new drug discovery tool for axenic- and intramacrophage-based assays” (PLoS Neglected Tropical Diseases, 2018):

System: NanoLuc-PEST expressing L. mexicana axenic amastigotes
Test: microbe, parasite or virus in culture
Format: cell-based
Details: 72 hours, relative to DMSO only control, n = 4

CC(C(=O)N1CCCC1)N1CCN(S(=O)(=O)c2ccc(C(C)(C)C)cc2)CC1 (stereo not shown) [MMV020291]
Relative Bioluminescence (%) (2 µM compound): 117.25% | Relative Bioluminescence (%) (10 µM compound): 111.14%

Cc1nnc(NC(=O)c2cn(-c3ccccc3)nc2-c2ccccc2C)o1 [MMV020320]
Relative Bioluminescence (%) (2 µM compound): 47.21% | Relative Bioluminescence (%) (10 µM compound): 0.21%

COc1ccccc1C(C)NCC(=O)Nc1cc(C(F)(F)F)ccc1Cl (stereo not shown) [MMV020321]
Relative Bioluminescence (%) (2 µM compound): 118.65% | Relative Bioluminescence (%) (10 µM compound): 131.13%

CC1CCCN(C(=O)C(C)Nc2cc(Cl)ccc2N2CCOCC2)C1 (stereo not shown) [MMV020388]
Relative Bioluminescence (%) (2 µM compound): 121.02% | Relative Bioluminescence (%) (10 µM compound): 143.84%

CC(C)C(C(=O)Nc1ccc(S(=O)(=O)N(C)C)cc1)c1ccc(Cl)cc1 (stereo not shown) [MMV020391]
Relative Bioluminescence (%) (2 µM compound): 89.71% | Relative Bioluminescence (%) (10 µM compound): 17.09%

Cc1ccc(Oc2ccc(NC(=O)CNc3ccccc3N3CCCC3=O)cc2)cc1 [MMV020512]
Relative Bioluminescence (%) (2 µM compound): 56.59% | Relative Bioluminescence (%) (10 µM compound): 56.11%

COc1ccccc1CNC(=O)c1cc(C2CC2)nc2c1cnn2C(C)C [MMV020517]
Relative Bioluminescence (%) (2 µM compound): 97.70% | Relative Bioluminescence (%) (10 µM compound): 63.10%

Cc1cc2ccccc2n1CC(=O)N1CC(C(=O)N2CCCCC2)Oc2ccccc21 (stereo not shown) [MMV020520]
Relative Bioluminescence (%) (2 µM compound): 108.71% | Relative Bioluminescence (%) (10 µM compound): 127.42%

O=C(NC1CC1)c1ccc(N2CCOc3ccc(Cl)cc32)s1 [MMV020537]
Relative Bioluminescence (%) (2 µM compound): 116.22% | Relative Bioluminescence (%) (10 µM compound): 146.04%

CC(C)C(NC(=O)Cc1cccc2ccccc12)C(=O)Nc1cccc(C#N)c1 (stereo not shown) [MMV020591]
Relative Bioluminescence (%) (2 µM compound): 87.56% | Relative Bioluminescence (%) (10 µM compound): 94.51%

Cc1noc(C)c1C(=O)N1CCCC(c2[nH]c3c(C)cccc3c2-c2ccncc2)C1 (stereo not shown) [MMV020623]
Relative Bioluminescence (%) (2 µM compound): 68.14% | Relative Bioluminescence (%) (10 µM compound): 86.96%

COc1ccc(-c2cncc3ccc(C(=O)NCCCn4ccnc4)nc23)cc1 [MMV020670]
Relative Bioluminescence (%) (2 µM compound): 96.09% | Relative Bioluminescence (%) (10 µM compound): 97.66%

COc1ccc(Cl)cc1NC(=O)CN(C)C(=O)c1cnn(-c2ccccc2)n1 [MMV020710]
Relative Bioluminescence (%) (2 µM compound): 102.08% | Relative Bioluminescence (%) (10 µM compound): 128.98%

CC(C)(C)c1cc(C(=O)Nc2cccnc2)cc(C(=O)Nc2cccnc2)c1 [MMV020982]
Relative Bioluminescence (%) (2 µM compound): 109.38% | Relative Bioluminescence (%) (10 µM compound): 93.07%

c1ccc(-c2nc(NC3CCCCC3)cc(C3CC3)n2)nc1 [MMV021013]
Relative Bioluminescence (%) (2 µM compound): 11.73% | Relative Bioluminescence (%) (10 µM compound): 1.47%

CO/C=C(/C(=O)OC)c1ccccc1Oc1cc(Oc2ccccc2C#N)ncn1 [MMV021057, Azoxystrobin]
Relative Bioluminescence (%) (2 µM compound): 62.63% | Relative Bioluminescence (%) (10 µM compound): 55.66%

Cc1cc(NCC(C)C)c2[nH]nc(-c3ccccc3)c2n1 [MMV021375]
Relative Bioluminescence (%) (2 µM compound): 68.90% | Relative Bioluminescence (%) (10 µM compound): 58.94%

Cc1cc(NCCc2ccccc2)nc(NC(=N)Nc2ccc(Cl)cc2)n1 [MMV021660]
Relative Bioluminescence (%) (2 µM compound): 89.16% | Relative Bioluminescence (%) (10 µM compound): 56.67%

CN1CCC(NCc2cccc(-c3ccc(S(=O)(=O)NCc4ccccc4)cc3)c2)CC1 [MMV022029]
Relative Bioluminescence (%) (2 µM compound): 99.81% | Relative Bioluminescence (%) (10 µM compound): 101.70%

CCN(CC)CCCN1CCN(C(=O)c2cccc(-c3noc(C(F)(F)F)n3)c2)CC1 [MMV022236]
Relative Bioluminescence (%) (2 µM compound): 74.51% | Relative Bioluminescence (%) (10 µM compound): 94.61%

O=C(Nc1ccc(N2CCNCC2)cc1)c1ccn2ncc(-c3cccc(Cl)c3)c2n1 [MMV022478]
Relative Bioluminescence (%) (2 µM compound): 88.45% | Relative Bioluminescence (%) (10 µM compound): 5.54%

c1ccc2c(c1)CN(CC1CC1)CC1(CCN(Cc3c[nH]c4cnccc34)CC1)O2 [MMV023183]
Relative Bioluminescence (%) (2 µM compound): 103.26% | Relative Bioluminescence (%) (10 µM compound): 84.53%

Cc1nc(-c2cccc(NCc3ccccc3)c2)[nH]c1C [MMV023227]
Relative Bioluminescence (%) (2 µM compound): 80.48% | Relative Bioluminescence (%) (10 µM compound): 64.23%

Nc1nccc2ccc(-c3ccc4nccn4c3)cc12 [MMV023233]
Relative Bioluminescence (%) (2 µM compound): 106.85% | Relative Bioluminescence (%) (10 µM compound): 120.49%

Nc1ncc(-c2cn[nH]c2)cc1-c1nc2cc(Cl)cnc2[nH]1 [MMV023370]
Relative Bioluminescence (%) (2 µM compound): 62.35% | Relative Bioluminescence (%) (10 µM compound): 54.43%

O=C(NC1CCN(c2ccnc3ccccc23)C1)c1cccc(C(F)(F)F)c1 (stereo not shown) [MMV023388]
Relative Bioluminescence (%) (2 µM compound): 84.10% | Relative Bioluminescence (%) (10 µM compound): 76.22%

NS(=O)(=O)c1cccc(-c2ccc3ncc(N4CCOCC4)nc3c2)c1 [MMV023860]
Relative Bioluminescence (%) (2 µM compound): 79.77% | Relative Bioluminescence (%) (10 µM compound): 74.37%

CC(C)(C)c1cc(C(=O)N2CCN(c3nccnc3C#N)CC2)n(Cc2ccccc2)n1 [MMV023949]
Relative Bioluminescence (%) (2 µM compound): 80.37% | Relative Bioluminescence (%) (10 µM compound): 52.45%

O=C(Nc1cccc(-c2ccc(NCCCN3CCCC3)nc2)c1)c1ccccc1 [MMV023953]
Relative Bioluminescence (%) (2 µM compound): 85.42% | Relative Bioluminescence (%) (10 µM compound): 83.96%

c1cncc(NCc2ccc(-c3cc4ccncc4cc3OC3CCNCC3)s2)c1 [MMV023969]
Relative Bioluminescence (%) (2 µM compound): 76.39% | Relative Bioluminescence (%) (10 µM compound): 74.16%

COc1ccc(-c2cnc3ccc(N4CCCC4)nn23)cc1OC [MMV023985]
Relative Bioluminescence (%) (2 µM compound): 57.95% | Relative Bioluminescence (%) (10 µM compound): 46.63%

O=C(Nc1ccccc1)c1ccc(-c2cc3ccncc3cc2OC2CCNCC2)s1 [MMV024035]
Relative Bioluminescence (%) (2 µM compound): 86.60% | Relative Bioluminescence (%) (10 µM compound): 79.61%

NS(=O)(=O)c1cncc(-c2ccc3nccc(-c4cn[nH]c4)c3n2)c1 [MMV024101]
Relative Bioluminescence (%) (2 µM compound): 98.92% | Relative Bioluminescence (%) (10 µM compound): 49.51%

Cc1ccc(S(=O)(=O)n2cc(-c3ccnc(N)c3)c3cc(Br)cnc32)cc1 [MMV024114]
Relative Bioluminescence (%) (2 µM compound): 103.63% | Relative Bioluminescence (%) (10 µM compound): 69.99%

CN(C)CCNC(=O)N1CCCN(c2ncnc3cc(-c4ccccc4)sc23)CC1 [MMV024195]
Relative Bioluminescence (%) (2 µM compound): 89.61% | Relative Bioluminescence (%) (10 µM compound): 76.61%

Cc1ccc2[nH]c(C3CCCNC3)c(-c3ccncc3)c2c1 (stereo not shown) [MMV024311]
Relative Bioluminescence (%) (2 µM compound): 109.56% | Relative Bioluminescence (%) (10 µM compound): 88.36%

O=C(NC1CC1)c1ccc(N2CCC(Cc3ccccc3)CC2)nc1 [MMV024397]
Relative Bioluminescence (%) (2 µM compound): 92.24% | Relative Bioluminescence (%) (10 µM compound): 86.39%

O=C(Nc1cccc(Cl)c1)c1cnc(N2CCN(c3ccncc3)CC2)c(Cl)c1 [MMV024406]
Relative Bioluminescence (%) (2 µM compound): 85.94% | Relative Bioluminescence (%) (10 µM compound): 93.72%

CN(C(=O)c1cc2c(-c3cncnc3)cccc2[nH]1)c1ccccc1 [MMV024443]
Relative Bioluminescence (%) (2 µM compound): 64.75% | Relative Bioluminescence (%) (10 µM compound): 32.60%

Cc1cccc(C(=O)Nc2ccnc(N(C)C3CCN(CC(C)C)CC3)c2)c1 [MMV024829]
Relative Bioluminescence (%) (2 µM compound): 74.80% | Relative Bioluminescence (%) (10 µM compound): 69.82%

O=C(Nc1ccc(N2CCNCC2)nc1)c1oc(-c2ccccc2)nc1C(F)(F)F [MMV024937]
Relative Bioluminescence (%) (2 µM compound): 68.74% | Relative Bioluminescence (%) (10 µM compound): 69.28%

CS(=O)(=O)c1cccc(-c2cnc3[nH]cc(-c4ccc(CCC(=O)O)cc4)c3c2)c1 [MMV026020]
Relative Bioluminescence (%) (2 µM compound): 94.58% | Relative Bioluminescence (%) (10 µM compound): 94.82%

Nc1nccc2ccc(Oc3ccncc3)cc12 [MMV026313]
Relative Bioluminescence (%) (2 µM compound): 56.90% | Relative Bioluminescence (%) (10 µM compound): 66.48%

CCn1ncc2c(NC3CCOCC3)c(CNC(=O)c3ccnn3C)c(C)nc21 [MMV026356]
Relative Bioluminescence (%) (2 µM compound): 76.21% | Relative Bioluminescence (%) (10 µM compound): 65.05%

OCc1ccc(-c2cncc(Nc3cccc(Cl)c3)c2)cc1 [MMV026468]
Relative Bioluminescence (%) (2 µM compound): 116.14% | Relative Bioluminescence (%) (10 µM compound): 104.46%

O=C(NCCc1ccccc1)c1cc(-c2cccnc2)cnc1NCC1CC1 [MMV026490]
Relative Bioluminescence (%) (2 µM compound): 92.31% | Relative Bioluminescence (%) (10 µM compound): 60.31%

CC(C)(C)CN1C(=O)C(c2ccccc2)(c2ccccc2)N=C1N [MMV026550]
Relative Bioluminescence (%) (2 µM compound): 91.50% | Relative Bioluminescence (%) (10 µM compound): 87.66%

OCCc1ccc(Nc2nccc(-c3nnc4ccccn34)n2)cc1 [MMV028694]
Relative Bioluminescence (%) (2 µM compound): 24.99% | Relative Bioluminescence (%) (10 µM compound): 3.77%

CC(C)(CN)c1nc(-c2ccc(Cl)c(O)c2)c(-c2ccnc(N)n2)[nH]1 [MMV030734]
Relative Bioluminescence (%) (2 µM compound): 80.21% | Relative Bioluminescence (%) (10 µM compound): 87.08%

CNC(=O)C1Cc2c([nH]c3cc(Cl)ccc23)C2(CCN(CCc3ccccc3)CC2)N1 (stereo not shown) [MMV031011]
Relative Bioluminescence (%) (2 µM compound): 110.57% | Relative Bioluminescence (%) (10 µM compound): 84.55%

FC(F)(F)c1cccc(-c2nc3c(NCc4ccncc4)nccc3[nH]2)c1 [MMV032967]
Relative Bioluminescence (%) (2 µM compound): 79.58% | Relative Bioluminescence (%) (10 µM compound): 75.35%

O=C1COCc2ccc(Br)cc2N1Cc1ccc(C(F)(F)F)cc1 [MMV032995]
Relative Bioluminescence (%) (2 µM compound): 97.31% | Relative Bioluminescence (%) (10 µM compound): 90.22%

c1ccc(Oc2ccc(-c3cc(N4CCOCC4)n[nH]3)cc2)cc1 [MMV045105]
Relative Bioluminescence (%) (2 µM compound): 73.02% | Relative Bioluminescence (%) (10 µM compound): 44.11%

COc1cc(C(F)(F)F)nc2ccc(C)c(N)c12 [MMV047015]
Relative Bioluminescence (%) (2 µM compound): 86.47% | Relative Bioluminescence (%) (10 µM compound): 82.90%

N#Cc1ccc(-c2ccc(OCC(N)=O)cc2)cc1 [MMV053220]
Relative Bioluminescence (%) (2 µM compound): 105.30% | Relative Bioluminescence (%) (10 µM compound): 82.56%

CC(=O)N1CCc2cc3nc(C)cc(C)c3cc21 [MMV054312]
Relative Bioluminescence (%) (2 µM compound): 120.77% | Relative Bioluminescence (%) (10 µM compound): 116.16%

Cc1cc(C)nc(-n2nc(C)cc2Nc2ccccc2)n1 [MMV062221]
Relative Bioluminescence (%) (2 µM compound): 64.16% | Relative Bioluminescence (%) (10 µM compound): 7.64%

Cc1nn(Cc2ccccc2)c(Cl)c1C(=O)NC1CCCCCC1 [MMV063404]
Relative Bioluminescence (%) (2 µM compound): 86.21% | Relative Bioluminescence (%) (10 µM compound): 79.51%

FC(F)(F)c1nnc2ccc(Cl)nn12 [MMV069458]
Relative Bioluminescence (%) (2 µM compound): 115.05% | Relative Bioluminescence (%) (10 µM compound): 112.41%

O=C1N(Cc2cc3ccccc3s2)CC2CN(Cc3ccccc3)CCN12 (stereo not shown) [MMV084603]
Relative Bioluminescence (%) (2 µM compound): 70.21% | Relative Bioluminescence (%) (10 µM compound): 61.10%

O=C(Nc1cnc2ccccc2c1)c1cccc(-n2cnnn2)c1 [MMV084864]
Relative Bioluminescence (%) (2 µM compound): 74.64% | Relative Bioluminescence (%) (10 µM compound): 55.81%

COc1cncc(-c2cncc(N3CCN(c4ccncc4)CC3)n2)c1 [MMV085071]
Relative Bioluminescence (%) (2 µM compound): 93.07% | Relative Bioluminescence (%) (10 µM compound): 82.11%
